Laboratory results taken from patent US9572831B2, “Composition and method for sulfated non-anticoagulant low molecular weight heparins in cancer and tumor metastasis” (priority 2013, dated 2017).

How the values were obtained:
Mpanc96-luc cancer cells = assay: Liver metastasis and recurrence after excision of pancreatic cancer; format: in vivo; settings: experiment and dose not stated at the place
From the text: Different groups of mice received either saline (control), LMWH, SNACH or S-SNACH, followed by injection of luciferase transfected pancreatic cancer cells into the mouse spleen. The treatment continued daily for two weeks. IVIS imaging was done once a week to measure the metastatic load to various organs. The tumor burden measurements were based on the bioluminescence signal intensity of the pancreatic cancer cells. The second experiment was intended to study the effect of the compounds (LMWH, SNACH, and S-SNACH) on metastasis after tumor excision surgery. Pancreatic Mpanc96 cells were injected into the tail of the pancreas and one week later animals were randomized into different groups. One group received saline and another group received LMWH, SNACH, and S-SNACH at 30 minutes before resection of the pancreatic tumor, followed by daily treatment for 3 weeks. Tumor metastasis was evaluated by IVIS imagining. A bleeding time experiment was done to evaluate the relative effect on bleeding time. […] Tumor luminescent signal intensity, weight, and histopathology were assessed at the termination of the study.
Mice were randomly distributed into control and treatment groups, averaging 10 mice in each group. […] The spread of cancer cells was monitored using IVIS imaging once per week, and at the end of the 3 week treatment period the mice were euthanized.

MPanc96-luc cells = assay: CAM cancer implant model, MPanc96; format: in vivo, chick embryo; settings: 1.0 ug/CAM
Experimental: The CAM cancer implant model was used in conjunction with the present invention to study the effect of heparin derivatives (S-NACH versus tinzaparin) along with gemcitabine at 1.0 μg/CAM on tumor angiogenesis and tumor growth. MPanc96-luc cells in exponential growth phase were harvested as described above. One×10^6 cells in 30 μl of medium were mixed with an equal volume of Matrigel and implanted in the chick Chorioallantoic membrane (CAM) model of 7-day old chick eggs. The effect of these treatments was determined after 8 days of implantation. Results are presented as a mean tumor weight (g) per treatment group and tumor hemoglobin (mg/dl)±SEM, n=10 per group. For the Matrigel portions of the models, tumor angiogenesis is evaluated with tumor weight analysis and Drabkin's Assay for hemoglobin concentration (angiogenesis index). PBS was used as a negative control while breast cancer cells were used as a positive control and to initiate tumorigenesis. The tumor cells were MCF-7/DXR (human breast adenocarcinoma), and 1-2 million cells per CAM were used. […] By re-weighing the tubes with the tumor inside, the weight of the tumor itself could be recorded. […] Specimens were centrifuged, and the hemoglobin content was measured using Drabkin's reagent (Sigma, St Louis, Mo.), run in duplicate using the supernatant. […]

tinzaparin
tumor recurrence after surgical excision (Mpanc96-luc cancer cells): not
tumor growth or tumor angiogenesis (MPanc96-luc cells): maximally inhibited
